Test system: EpidermFT™ Skin Model (EFT-400) full thickness skin cultures
Assay: Affymetrix GeneChip HG U133 Plus 2.0 microarray global gene expression, agent-exposed vs untreated skin cultures
Type: cell-based, human
[1] = Salicin 0.5% vs Untreated Control, 24 hr, direction down
[2] = probe 201286_at, Table 3 skin structure
[3] = probe 203535_at, Table 3 skin structure
[4] = probe 204422_s_at, Table 3 skin structure

## OCc1ccccc1O[C@@H]1O[C@H](CO)[C@@H](O)[C@H](O)[C@H]1O [Salicin, 2-(Hydroxymethyl)phenyl β-D-glucospyranoside]
[1]
  Fold change WNK1 (211993_at): 2.037
  Fold change ZBTB1 (1557036_at): 2.05
  Fold change ZDHHC21 (241946_at): 2.09
  Fold change ZFYVE21 (219929_s_at): 2.001
  Fold change ZHX1 (223213_s_at): 2.071
  Fold change ZHX1 (223214_s_at): 2.15
  Fold change ZNF85 (1554445_at): 2.143
  Fold change ZNF561 (235200_at): 2.135
  Fold change ZNF589 (219968_at): 2.059
  Fold change ZNF823 (229732_at): 2.045
Probe 200606_at, 0.5%, 24 hr
  Direction DSP: down
  Fold change DSP: 2.848
Probe 200800_s_at, 0.5%, 24 hr
  Direction HSPA1A /// HSPA1B: up
  Fold change HSPA1A /// HSPA1B: 3.112
Probe 200832_s_at, 0.5%, 24 hr
  Direction SCD: down
  Fold change SCD: 3.77
Probe 200965_s_at, 0.5%, 24 hr
  Direction ABLIM1: down
  Fold change ABLIM1: 11.88
Probe 201042_at, 0.5%, 24 hr
  Direction TGM2: up
  Fold change TGM2: 2.351
Probe 201044_x_at, 0.5%, 24 hr
  Direction DUSP1: up
  Fold change DUSP1: 3.726
Probe 201150_s_at, 0.5%, 24 hr
  Direction TIMP3: up
  Fold change TIMP3: 2.058
[2]
  Direction SDC1: down
  Fold change SDC1: 4.63
Probe 201287_s_at, 0.5%, 24 hr
  Direction SDC1: down
  Fold change SDC1: 3.32
Probe 201428_at, 0.5%, 24 hr
  Direction CLDN4: down
  Fold change CLDN4: 3.454
Probe 201474_s_at, 0.5%, 24 hr
  Direction ITGA3: down
  Fold change ITGA3: 2.052
Probe 201502_s_at, 0.5%, 24 hr
  Direction NFKBIA: up
  Fold change NFKBIA: 3.064
Probe 201656_at, 0.5%, 24 hr
  Direction ITGA6: down
  Fold change ITGA6: 4.442
Probe 201820_at, 0.5%, 24 hr
  Direction KRT5: down
  Fold change KRT5: 2.154
Probe 201839_s_at, 0.5%, 24 hr
  Direction EPCAM: down
  Fold change EPCAM: 2.093
Probe 201860_s_at, 0.5%, 24 hr
  Direction PLAT: up
  Fold change PLAT: 4.229
Probe 202053_s_at, 0.5%, 24 hr
  Direction ALDH3A2: down
  Fold change ALDH3A2: 4.399
Probe 202154_x_at, 0.5%, 24 hr
  Direction TUBB3: down
  Fold change TUBB3: 2.967
Probe 202340_x_at, 0.5%, 24 hr
  Direction NR4A1: up
  Fold change NR4A1: 2.338
Probe 202411_at, 0.5%, 24 hr
  Direction IFI27: down
  Fold change IFI27: 4.671
Probe 202422_s_at, 0.5%, 24 hr
  Direction ACSL4: up
  Fold change ACSL4: 3.786
Probe 202558_s_at, 0.5%, 24 hr
  Direction HSPA13: up
  Fold change HSPA13: 3.13
Probe 202609_at, 0.5%, 24 hr
  Direction EPS8: up
  Fold change EPS8: 2.334
Probe 202643_s_at, 0.5%, 24 hr
  Direction TNFAIP3: up
  Fold change TNFAIP3: 6.915
Probe 202687_s_at, 0.5%, 24 hr
  Direction TNFSF10: down
  Fold change TNFSF10: 20.31
Probe 202724_s_at, 0.5%, 24 hr
  Direction FOXO1: up
  Fold change FOXO1: 2.098
Probe 202826_at, 0.5%, 24 hr
  Direction SPINT1: down
  Fold change SPINT1: 4.585
Probe 202843_at, 0.5%, 24 hr
  Direction DNAJB9: up
  Fold change DNAJB9: 3.56
Probe 203184_at, 0.5%, 24 hr
  Direction FBN2: up
  Fold change FBN2: 2.028
[3]
  Direction S100A9: down
  Fold change S100A9: 2.59
Probe 203549_s_at, 0.5%, 24 hr
  Direction LPL: up
  Fold change LPL: 4.075
Probe 203708_at, 0.5%, 24 hr
  Direction PDE4B: up
  Fold change PDE4B: 5.314
Probe 203747_at, 0.5%, 24 hr
  Direction AQP3: down
  Fold change AQP3: 2.032
Probe 203810_at, 0.5%, 24 hr
  Direction DNAJB4: up
  Fold change DNAJB4: 2.053
Probe 203836_s_at, 0.5%, 24 hr
  Direction MAP3K5: up
  Fold change MAP3K5: 2.356
Probe 203887_s_at, 0.5%, 24 hr
  Direction THBD: down
  Fold change THBD: 3.137
Probe 203896_s_at, 0.5%, 24 hr
  Direction PLCB4: up
  Fold change PLCB4: 4.016
Probe 203980_at, 0.5%, 24 hr
  Direction FABP4: up
  Fold change FABP4: 2.251
Probe 204038_s_at, 0.5%, 24 hr
  Direction LPAR1: up
  Fold change LPAR1: 2.732
Probe 204135_at, 0.5%, 24 hr
  Direction FILIP1L: down
  Fold change FILIP1L: 2.996
Probe 204141_at, 0.5%, 24 hr
  Direction TUBB2A: down
  Fold change TUBB2A: 2.739
Probe 204256_at, 0.5%, 24 hr
  Direction ELOVL6: down
  Fold change ELOVL6: 3.121
Probe 204273_at, 0.5%, 24 hr
  Direction EDNRB: up
  Fold change EDNRB: 3.916
Probe 204379_s_at, 0.5%, 24 hr
  Direction FGFR3: down
  Fold change FGFR3: 5.288
Probe 204421_s_at, 0.5%, 24 hr
  Direction FGF2: up
  Fold change FGF2: 3.845
[4]
  Direction FGF2: up
  Fold change FGF2: 3.455
Probe 204636_at, 0.5%, 24 hr
  Direction COL17A1: down
  Fold change COL17A1: 3.576
Probe 204733_at, 0.5%, 24 hr
  Direction KLK6: down
  Fold change KLK6: 16.28
Probe 204734_at, 0.5%, 24 hr
  Direction KRT15: down
  Fold change KRT15: 3.6
Probe 204790_at, 0.5%, 24 hr
  Direction SMAD7: up
  Fold change SMAD7: 2.151
Probe 204897_at, 0.5%, 24 hr
  Direction PTGER4: up
  Fold change PTGER4: 2.525
Probe 204932_at, 0.5%, 24 hr
  Direction INFRSF11B: up
  Fold change INFRSF11B: 6.287
